According to article PMC7177638 (International Journal of Molecular Sciences, 2020):

Columns and labels:
[1] = tested on: panel of human cancer cell lines (PSN-1, HCT-15, LoVo, A431, 2008); assay: MTT cytotoxicity, average over the panel of human cancer cell lines; format: cell-based; conditions: 72 h
Experimental: The in vitro cytotoxic activities of compounds 1–6 were assayed on a panel of human cancer cell lines containing examples of pancreatic (PSN-1), colon (HCT-15 and LoVo), cervical (A431), and ovarian (2008) cancers. Cisplatin and oxaliplatin were used as reference compounds and were tested under the same experimental conditions.
[17, 30] Thus, the pharmacological activity decreases in the order 3 >> 1 ≈ 2 ≈ 4 > 5 > 6.
The growth inhibitory effect toward the tumor cell lines was evaluated by the MTT test. Briefly, 3-8·10^3 cells/well, depending upon the growth characteristics of the cell lines, were seeded in 96-well microplates in growth medium (100 µL) and then incubated at 37 °C in a 5% carbon dioxide atmosphere. After 24 h, the medium was removed and replaced with a fresh one containing the compound to be tested at the appropriate concentration. Triplicate cultures were established for each treatment. After 72 h, each well was treated with 10 µL of a 5 mg·mL^−1 MTT (3-(4,5-dimethylthiazol-2-yl)-2,5-diphenyltetrazolium bromide) saline solution and, after 5 h of incubation, 100 µL of a sodium dodecylsulfate (SDS) solution in HCl 0.01 M were added. Following an overnight incubation, the inhibition of cell growth induced by the tested complexes was evaluated by measuring the absorbance of each well at 570 nm using a Bio-Rad 680 microplate reader (Bio-Rad Laboratories S.r.l., Segrate (MI), Italy).

[2] = XPS Pt4f surface reduction of Pt(IV) to Pt(II) under X-ray irradiation; format: physicochemical; conditions: after 30 min irradiation, calculated from Pt(IV) abundances
From the text: The Pt(IV) complexes were also characterized by X-ray photoelectron spectroscopy (XPS) in order to obtain information on the surface chemical composition and on the platinum speciation. Despite the surface sensitivity of the technique (topmost 5–8 nm), the analysis on homogeneous samples provides useful information on the chemical environment of all detected elements. […] Two doublets were found: one is attributed to Pt(II) (BE Pt4f7/2 = 72.9 ± 0.2 eV and BE Pt4f5/2 = 76.2 ± 0.2 eV), while the second doublet is attributed to Pt(IV) (BE Pt4f7/2 = 75.6 ± 0.2 eV and BE Pt4f5/2 = 79.0 ± 0.2 eV).
The Pt(IV)/Pt(II) relative abundance varies from case to case; moreover, if the X-ray degradation is monitored after 30 min exposure to the X-ray beam, an increase of the Pt(II) relative abundance is observed (Figure 8b).
X-ray Photoelectron Spectroscopy (XPS) analyses were run on a PHI 5000 Versa Probe II Scanning XPS Microprobe spectrometer (ULVAC PHI Inc., Kanagawa, Japan). Measurements were carried out using a monochromatic Al Kα source (X-ray spot 200 μm) at a power of 50.3 W. Wide scan and detailed spectra (Pt4f, C1s, Cl2p, N1s, O1s) were acquired in Constant Analyzer Energy (CAE) mode with a pass energy of 117.40 and 29.35 eV, respectively. An electron gun was used for charge compensation (1.0 V, 20.0 μA). Due to the X-ray sensitivity of Pt(IV) complexes, the Pt4f spectral region was acquired first. X-ray degradation kinetics experiments were performed analyzing the same sample area after 30 min. Data processing was performed by using the MultiPak software v. 9.8.0.19.

[3] = Cyclic voltammetry, cathodic reduction potential in aqueous solution; format: physicochemical; conditions: values normalized vs. SCE; phosphate buffer pH 7.4, 5 mM NaCl, 5·10^−4 M complex, scan rate 0.020 V s^−1
Experimental: The electrochemical characterization of compounds 1–6, performed by using cyclic voltammetry (CV), was carried out with the aim of determining the cathodic reduction potentials in aqueous solution (Ep^c).
Cyclic voltammetry (CV) measurements were carried out with a potentiostat CHI 1230B (CH Instruments, Inc., Austin, TX, USA) in a standard three-electrode electrochemical cell. The working electrode was a glassy carbon (GC) electrode, the reference electrode was a KCl-saturated Ag/AgCl and the counter was a Pt sheet. The GC electrode was carefully polished with alumina powder, then rinsed with distilled water and dried, to obtain a reproducible surface for all the experiments. All the measurements, conducted in triplicate, were carried out in buffered aqueous solutions containing the Pt(IV) compound at a concentration of 5·10^−4 M in 10 mL phosphate buffer (PB, pH = 7.4, I = 0.1) and 5 mM NaCl as supporting electrolyte. A blank solution (without Pt(IV) complex) was also tested. All the peak potentials were measured with a scan rate of 0.020 V s^−1; the initial potential was chosen equal to the open-circuit potential and the scan direction was negative. All the CV plots were acquired after an equilibration time of 2 min in order to make the GC surface reproducible.

[4] = Stability in solution followed by 1H-NMR (solvent-assisted photoreduction); format: physicochemical; conditions: DMSO-d6, room temperature, not shielded from light
From the text: (5.4–6.5 ppm). Most likely, compound 4 underwent a solvent-assisted reduction process favored by light, as previously observed for similar compounds such as cis,trans,cis-[PtCl2(OH)2(cis-1,4-DACH)] [19, 20]. […] This reduction/solvation could also be observed in other solvents, such as D2O and CD3OD.
As for compound 4, the reduction is probably fostered by the presence of axial chlorido ligand(s).
The ^13C NMR signals are influenced by the asymmetry of the complex with respect to the equatorial plane with two peaks at 125.4 and 125.2 ppm for the vinylic carbons, two signals at 60.2 and 59.3 ppm for the methynic carbons, and two signals at 33.1 and 32.6 ppm for the methylenic carbons (Figure S10).

Compound | times more cytotoxic than the other Pt(IV) compounds of the series [1] | times more cytotoxic than the other Pt(IV) compounds of the series ([1]; listed as bis-benzoate derivative) | IC50 ([1]; mean over the cell line panel) [nM] | % of Reduction [2] [%] | Cathodic reduction potential Ep^c [3] [V] | stability in solution (reduction to Pt(II) / solvation) [4]
NC1CC=CCC1N.O=C([O-])C(=O)[O-].O=C([O-])c1ccccc1.O=C([O-])c1ccccc1.[Pt+4] (mixture of isomers) [Complex 3, cis,trans,cis-[Pt(OXA)(BzO)2(DACHEX)]] | about five times more active | 5–8 | 260 | 66 | −0.99 | –
CC(=O)[O][Pt]1([Cl])[O]C(=O)C(=O)[O]1.NC1CC=CCC1N (racemic) [Complex 5, cis,trans,cis-[Pt(OXA)(AcO)Cl(DACHEX)]] | – | – | – | 67 | −0.82 | shows a photo-assisted reduction accompanied by solvation
NC1CC=CCC1N.O=C1[O][Pt]([OH])([Cl])[O]C1=O (racemic) [Complex 6, cis,trans,cis-[Pt(OXA)(OH)Cl(DACHEX)]] | – | – | – | 64 | −0.48 | underwent reduction followed by solvation
